“And” between values parts separate entries of the source, which are not always exact repeats. Identical values can stand only once. Blank lines part the entries; values can stand above or below the compound they belong to.
System: 993429-296-R-J1-PDC complex spheroid growth, percent test/control
Assay: Anticancer human tumor 993429-296-R-J1-PDC patient-derived uterine sarcoma cell line growth inhibition [Asc]
Details: for viability, T/C: stronger effect = lower value
Summary of the method: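 Complex spheroids combining tumor cells with HUVEC endothelial cells and human MSCs, at 37 degrees C, 5% CO2; agents tested alone or combined, half-log dilutions from at or near clinical Cmax, or 10 microM if Cmax unknown.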
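Also: spheroids exposed to compounds for seven days.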

IC50 (curve of first compound, second compound 0.03 µM): 211 nM
IC50 (curve of first compound, second compound 0.0949 µM): 159 nM
IC50 (curve of first compound, second compound 0.3 µM): 176 nM
IC50 (curve of first compound, second compound 0.949 µM): 144 nM
IC50 (curve of first compound, second compound 3 µM): 104 nM
Compound: Cc1nc(N2CCC3(CC2)COC(C)C3N)c(CO)nc1Sc1ccnc(N)c1Cl (configuration not stated) + CCN1C(C(=O)NC23CCC(C(=O)O)(CC2)CC3)C(c2cccc(Cl)c2F)C2(C(=O)Nc3cc(Cl)ccc32)C12CCCCC2
viability, T/C (second compound 0.03 µM, first compound 0.00949 µM): 89.3%
viability, T/C (second compound 0.03 µM, first compound 0.03 µM): 86.2%
viability, T/C (second compound 0.03 µM, first compound 0.0949 µM): 68.7%
viability, T/C (second compound 0.03 µM, first compound 0.3 µM): 41.5%
viability, T/C (second compound 0.03 µM, first compound 0.949 µM): 33.3%
viability, T/C (second compound 0.03 µM, first compound 3 µM): 29.6%
viability, T/C (second compound 0.0949 µM, first compound 0.00949 µM): 92.5%
viability, T/C (second compound 0.0949 µM, first compound 0.03 µM): 71.7%
viability, T/C (second compound 0.0949 µM, first compound 0.0949 µM): 65.2%
viability, T/C (second compound 0.0949 µM, first compound 0.3 µM): 35.3%
viability, T/C (second compound 0.0949 µM, first compound 0.949 µM): 30.2%
viability, T/C (second compound 0.0949 µM, first compound 3 µM): 29.2%
viability, T/C (second compound 0.3 µM, first compound 0.00949 µM): 87.7%
viability, T/C (second compound 0.3 µM, first compound 0.03 µM): 79.8%
viability, T/C (second compound 0.3 µM, first compound 0.0949 µM): 59%
viability, T/C (second compound 0.3 µM, first compound 0.3 µM): 42.6%
viability, T/C (second compound 0.3 µM, first compound 0.949 µM): 29.2%
viability, T/C (second compound 0.3 µM, first compound 3 µM): 26.8%
viability, T/C (second compound 0.949 µM, first compound 0.00949 µM): 86.7%
viability, T/C (second compound 0.949 µM, first compound 0.03 µM): 68.5%
viability, T/C (second compound 0.949 µM, first compound 0.0949 µM): 55.9%
viability, T/C (second compound 0.949 µM, first compound 0.3 µM): 43.1%
viability, T/C (second compound 0.949 µM, first compound 0.949 µM): 27.6%
viability, T/C (second compound 0.949 µM, first compound 3 µM): 22.9%
viability, T/C (second compound 3 µM, first compound 0.00949 µM): 75.2%
viability, T/C (second compound 3 µM, first compound 0.03 µM): 69.9%
viability, T/C (second compound 3 µM, first compound 0.0949 µM): 50.1%
viability, T/C (second compound 3 µM, first compound 0.3 µM): 34%
viability, T/C (second compound 3 µM, first compound 0.949 µM): 28.8%
viability, T/C (second compound 3 µM, first compound 3 µM): 21.6%

IC50 (curve of first compound, second compound 0.1 µM): > 10000 nM
IC50 (curve of first compound, second compound 0.316 µM): 4920 nM
IC50 (curve of first compound, second compound 1 µM): 4340 nM
IC50 (curve of first compound, second compound 3.16 µM): 524 nM
IC50 (curve of first compound, second compound 10 µM): 5690 nM
Compound: C=CC(=O)N1CCN(c2nc(=O)n(-c3c(C)ccnc3C(C)C)c3nc(-c4c(O)cccc4F)c(F)cc23)C(C)C1 (configuration not stated) + Cc1c(S(C)(=O)=O)c(-c2cc(F)cc(N3CCN(c4ccc(NS(=O)(=O)c5ccc(NC(CCN6CCC(C(=O)OCCCP(=O)(O)O)CC6)CSc6ccccc6)c(S(=O)(=O)C(F)(F)F)c5)cc4)CC3)c2)c(-c2ccc(Cl)cc2)n1C(C)C
viability, T/C (second compound 0.1 µM, first compound 0.0316 µM): 83.5%
viability, T/C (second compound 0.1 µM, first compound 0.1 µM): 81.1%
viability, T/C (second compound 0.1 µM, first compound 0.316 µM): 91.9%
viability, T/C (second compound 0.1 µM, first compound 1 µM): 75.1%
viability, T/C (second compound 0.1 µM, first compound 3.16 µM): 76.5%
viability, T/C (second compound 0.1 µM, first compound 10 µM): 54.6%
viability, T/C (second compound 0.316 µM, first compound 0.0316 µM): 79%
viability, T/C (second compound 0.316 µM, first compound 0.1 µM): 80.6%
viability, T/C (second compound 0.316 µM, first compound 0.316 µM): 69.2%
viability, T/C (second compound 0.316 µM, first compound 1 µM): 75%
viability, T/C (second compound 0.316 µM, first compound 3.16 µM): 62.3%
viability, T/C (second compound 0.316 µM, first compound 10 µM): 30.5%
viability, T/C (second compound 1 µM, first compound 0.0316 µM): 62.9%
viability, T/C (second compound 1 µM, first compound 0.1 µM): 53.5%
viability, T/C (second compound 1 µM, first compound 0.316 µM): 76.8%
viability, T/C (second compound 1 µM, first compound 1 µM): 62.1%
viability, T/C (second compound 1 µM, first compound 3.16 µM): 47.3%
viability, T/C (second compound 1 µM, first compound 10 µM): 41.8%
viability, T/C (second compound 3.16 µM, first compound 0.0316 µM): 51.1%
viability, T/C (second compound 3.16 µM, first compound 0.1 µM): 59.9%
viability, T/C (second compound 3.16 µM, first compound 0.316 µM): 54.4%
viability, T/C (second compound 3.16 µM, first compound 1 µM): 43.8%
viability, T/C (second compound 3.16 µM, first compound 3.16 µM): 34.9%
viability, T/C (second compound 3.16 µM, first compound 10 µM): 45.9%
viability, T/C (second compound 10 µM, first compound 0.0316 µM): 106%
viability, T/C (second compound 10 µM, first compound 0.1 µM): 81%
viability, T/C (second compound 10 µM, first compound 0.316 µM): 86.6%
viability, T/C (second compound 10 µM, first compound 1 µM): 86.1%
viability, T/C (second compound 10 µM, first compound 3.16 µM): 64.7%
viability, T/C (second compound 10 µM, first compound 10 µM): 34.9%

IC50 (curve of compound): > 1000 nM
Compound: CCN1CCN(Cc2ccc(Nc3ncc(F)c(-c4cc(F)c5nc(C)n(C(C)C)c5c4)n3)nc2)CC1
viability, T/C (compound 0.00316 µM): 90.1% (2×) and 100%
viability, T/C (compound 0.01 µM): 86.7% and 111% and 99.3%
viability, T/C (compound 0.0316 µM): 94.1% and 105% and 92.7%
viability, T/C (compound 0.1 µM): 85.6% and 98.3% and 93.6%
viability, T/C (compound 0.316 µM): 98.6% and 119% and 100%
viability, T/C (compound 1 µM): 88.5% and 94.9% and 86.3%

Reference: PubChem BioAssay AID1963446 (Molecular Pharmacology Branch, DTP, NCI, 2024)
